Assay results as given in patent US6583179B2, “Substituted aminoalkylamide derivatives as antagonists of follicle stimulating hormone” (Ortho-McNeil Pharmaceutical, Inc., priority 1999, dated 2003).

Molecular target: T1, human FSH receptor (Homo sapiens, UniProt P23945)
T1 construct: expressed in transfected cells; host or cells: Chinese Hamster Ovary cells (K-1; ATCC), line rhFSHR-cLUC
T1 sequence (P23945 18-695): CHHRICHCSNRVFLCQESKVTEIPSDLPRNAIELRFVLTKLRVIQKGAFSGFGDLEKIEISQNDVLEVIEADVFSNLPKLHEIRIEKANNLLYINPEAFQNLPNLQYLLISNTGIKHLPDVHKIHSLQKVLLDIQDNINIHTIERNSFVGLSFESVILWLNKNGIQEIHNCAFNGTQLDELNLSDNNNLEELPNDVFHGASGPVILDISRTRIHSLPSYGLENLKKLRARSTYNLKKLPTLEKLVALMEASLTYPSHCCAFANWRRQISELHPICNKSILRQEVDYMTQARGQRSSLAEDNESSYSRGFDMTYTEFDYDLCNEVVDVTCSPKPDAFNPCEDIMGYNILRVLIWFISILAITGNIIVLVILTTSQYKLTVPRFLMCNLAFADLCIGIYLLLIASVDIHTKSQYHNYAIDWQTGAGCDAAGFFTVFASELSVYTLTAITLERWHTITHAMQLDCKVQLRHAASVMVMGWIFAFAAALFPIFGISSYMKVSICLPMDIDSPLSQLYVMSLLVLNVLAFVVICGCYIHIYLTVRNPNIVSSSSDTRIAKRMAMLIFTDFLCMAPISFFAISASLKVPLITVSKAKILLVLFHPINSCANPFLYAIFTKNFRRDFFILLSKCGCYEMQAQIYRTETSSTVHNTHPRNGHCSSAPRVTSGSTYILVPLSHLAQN
Test: hFSHR CHO cAMP assay (rhFSHR-cLUC cells, FSH-stimulated cAMP, radioimmunoassay)
Format: cell-based
Settings: inhibition of cAMP produced by EC70 dose of FSH (4.85 nM); maximum concentration 50 μM
Description: Minimum Essential Medium-Alpha (MEM-alpha), fetal bovine serum (FBS), penicillin, streptomycin, geneticin, trypsin-EDTA, Hanks' Balanced Salt Solution (no Calcium chloride, Magnesium chloride, Magnesium sulfate, or phenol red; Ca-Mg free HBSS) were purchased from Gibco BRL (Gaithersburg, Md.). The cells used for the FSH bioassay (rhFSHR-cLUC) were Chinese Hamster Ovary cells (K-1; ATCC) stably transformed with human FSH receptor (pSVK-FSHr) and a cAMP luciferase reporter gene (responsive CGα-180LUC). Follicle Stimulating Hormone (Metrodin; Fertinex) was purchased from Serono, Ltd. (Norwell, Mass.).
The rhFSHR-cLUC cell cultures were maintained in MEM-Alpha supplemented with 10% heat-inactivated FBS (HIFBS), 100 U/ml penicillin, 100 μg/mL streptomycin, and included 0.1 g/L geneticin for stable cell selection.
Forty-eight hours after the cells were plated in sterile 96-well culture plates (Corning, Corning, N.Y.) the spent media was removed and 50 μl assay media (modified growth media with 2% HIFBS) containing 2 mM IBMX (3-isobutyl-1-methyl-xanthine) was added to the cells. Compounds (25 μl) in the appropriate concentration were added followed 5 minutes later by an EC70 dose of FSH (25 μl; 160 ng/ml; 4.85 nM). After 10 minutes @ 22.5° C. (room temperature) the reaction was terminated by addition of 25 μL 0.5 N hydrochloric acid to each well. The amount of cAMP produced was measured by radioimmunoassay in a FlashPlate (DuPont, Boston, Mass.). To each flash plate 60 μL flash plate buffer was added followed by 40 μL acidified cell sample or cAMP standard, followed with the addition of 100 μl ^125l-cAMP trace. The FlashPlates were sealed, incubated overnight @ room temperature, and counted in a Packard TopCount (Packard Instrument Co., Meriden, Conn.). The cAMP radioimmunoassay results were calculated using DPM conversion and log-logit transformation of % binding (Excel program).
Test compounds were solubilized in 30% dimethyl sulfoxide (DMSO) at a concentration of 10 mM before diluting to appropriate concentrations in assay medium. The final DMSO concentration in the treated cells and in the control cells was 0.75%.
For individual experiments, a set of samples were tested including a vehicle control (assay buffer), a reference compound (hFSH) at a range of concentrations designed to elicit a minimal to maximal response, and several concentrations of test compounds together with an EC70 concentration of standard (hFSH challenge). Each compound was performed in duplicates for the primary evaluation and quadruplicates for the dose-ranging experiments. The cAMP radioimmunoassay raw data (pmol) were calculated to provide average pmol cAMP produced/ml and the percent inhibition was calculated as shown below.
% Inh=[1−(Avg.pmoltest compound+standard)/(Avg.pmolstandard)]×100
EC50 values were calculated from an analysis of the concentration-inhibition data using a linear analysis of the data transformed to a log-logit format.

C[C@@H](CN(CC(=O)NCc1ccc(CN)cc1)S(=O)(=O)c1ccc(-c2ccccc2Cl)cc1)c1ccccc1 [Compound 198]
EC50: 40 nM

Cc1ccccc1-c1ccc(S(=O)(=O)N(CC(=O)NCc2ccc(CN)cc2)C[C@@H](C)c2ccccc2)cc1 [Compound 215]
EC50: 80 nM
